Measurements published in US8383162B2 (priority 2006, dated 2013).
“Also recorded” adds a separate entry of the source.

Legend:
[1] = test system: rats; conditions: rat, in vivo
[2] = test system: N-type calcium channels on neuronal pre-synaptic membrane; format: cell-based
[3] = Acute, chronic and neurogenic pain after intrathecal bolus pretreatment; format: in vivo; conditions: pretreatment by intrathecal bolus injection
Experimental: In the heat pain model the antinociceptive effect of the Phα1B lasts 24 h.

[4] = test system: rats; conditions: rat, in vivo; remark: listed apart in the source
[5] = test system: synaptosomes; format: cell-based
[6] = test system: rats; conditions: rat, in vivo; remark: listed apart in the source
[7] = test system: synaptosomes; format: cell-based; remark: listed apart in the source
[8] = test system: rats; conditions: rat, in vivo; remark: listed apart in the source
[9] = test system: HVA calcium channels subtypes (L, N, P/Q and R); format: cell-based, mammalian
[10] = test system: central nervous system cells; assay: Acute toxicity and electrical excitability in central nervous system cells
[11] = target: T1, N-type calcium channels (Homo sapiens, UniProt Q00975); format: cell-based, mammalian
T1 construct: expressed in transfected cells; host or cells: HEK cells

[12] = test system: nerve ending spinal cord of rats; format: cell-based

T1 sequence (Q02641 whole entry): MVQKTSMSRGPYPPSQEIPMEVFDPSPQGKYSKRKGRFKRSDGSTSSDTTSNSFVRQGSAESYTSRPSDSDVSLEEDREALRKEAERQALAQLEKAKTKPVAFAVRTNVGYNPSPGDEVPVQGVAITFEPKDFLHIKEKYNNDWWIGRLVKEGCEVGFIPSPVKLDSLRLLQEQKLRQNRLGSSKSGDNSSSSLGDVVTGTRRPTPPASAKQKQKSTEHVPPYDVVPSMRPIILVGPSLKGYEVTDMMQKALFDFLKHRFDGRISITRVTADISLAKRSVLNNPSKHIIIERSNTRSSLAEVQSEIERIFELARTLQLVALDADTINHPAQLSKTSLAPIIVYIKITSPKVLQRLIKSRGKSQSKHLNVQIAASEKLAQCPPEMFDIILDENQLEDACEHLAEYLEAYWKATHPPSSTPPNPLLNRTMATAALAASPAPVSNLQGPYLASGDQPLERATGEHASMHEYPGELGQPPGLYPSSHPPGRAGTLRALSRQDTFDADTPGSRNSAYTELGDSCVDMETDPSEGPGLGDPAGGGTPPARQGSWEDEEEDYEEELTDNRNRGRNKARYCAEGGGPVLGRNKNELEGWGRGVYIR
T1 sequence (P54289 957-1103, further chain): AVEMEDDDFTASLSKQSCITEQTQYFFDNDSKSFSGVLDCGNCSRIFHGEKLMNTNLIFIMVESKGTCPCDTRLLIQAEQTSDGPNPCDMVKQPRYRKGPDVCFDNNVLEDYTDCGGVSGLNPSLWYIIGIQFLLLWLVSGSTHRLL
T1 sequence (P54289 25-956, further chain): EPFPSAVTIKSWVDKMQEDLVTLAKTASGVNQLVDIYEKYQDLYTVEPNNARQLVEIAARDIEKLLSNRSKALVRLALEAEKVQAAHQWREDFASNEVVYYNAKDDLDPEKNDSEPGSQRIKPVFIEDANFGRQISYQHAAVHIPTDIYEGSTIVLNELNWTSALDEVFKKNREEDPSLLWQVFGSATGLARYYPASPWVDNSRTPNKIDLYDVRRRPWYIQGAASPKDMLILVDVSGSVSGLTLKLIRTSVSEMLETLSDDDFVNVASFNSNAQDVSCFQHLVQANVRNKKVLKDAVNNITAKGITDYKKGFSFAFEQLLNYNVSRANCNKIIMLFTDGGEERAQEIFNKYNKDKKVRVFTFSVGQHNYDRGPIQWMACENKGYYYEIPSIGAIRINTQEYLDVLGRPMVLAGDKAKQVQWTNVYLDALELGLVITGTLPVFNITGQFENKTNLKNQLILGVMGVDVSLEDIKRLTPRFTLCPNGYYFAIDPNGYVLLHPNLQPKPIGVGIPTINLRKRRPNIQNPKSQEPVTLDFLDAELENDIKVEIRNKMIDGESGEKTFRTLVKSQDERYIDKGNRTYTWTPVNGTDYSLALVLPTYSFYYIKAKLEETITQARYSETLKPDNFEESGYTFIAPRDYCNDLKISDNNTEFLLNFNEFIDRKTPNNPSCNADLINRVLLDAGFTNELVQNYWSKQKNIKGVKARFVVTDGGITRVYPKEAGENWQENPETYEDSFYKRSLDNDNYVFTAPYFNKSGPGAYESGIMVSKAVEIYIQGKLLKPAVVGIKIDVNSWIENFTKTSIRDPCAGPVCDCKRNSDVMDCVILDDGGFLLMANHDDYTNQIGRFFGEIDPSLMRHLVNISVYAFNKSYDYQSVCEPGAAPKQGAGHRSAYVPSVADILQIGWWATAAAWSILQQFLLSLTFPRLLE
T1 sequence (Q00975 whole entry): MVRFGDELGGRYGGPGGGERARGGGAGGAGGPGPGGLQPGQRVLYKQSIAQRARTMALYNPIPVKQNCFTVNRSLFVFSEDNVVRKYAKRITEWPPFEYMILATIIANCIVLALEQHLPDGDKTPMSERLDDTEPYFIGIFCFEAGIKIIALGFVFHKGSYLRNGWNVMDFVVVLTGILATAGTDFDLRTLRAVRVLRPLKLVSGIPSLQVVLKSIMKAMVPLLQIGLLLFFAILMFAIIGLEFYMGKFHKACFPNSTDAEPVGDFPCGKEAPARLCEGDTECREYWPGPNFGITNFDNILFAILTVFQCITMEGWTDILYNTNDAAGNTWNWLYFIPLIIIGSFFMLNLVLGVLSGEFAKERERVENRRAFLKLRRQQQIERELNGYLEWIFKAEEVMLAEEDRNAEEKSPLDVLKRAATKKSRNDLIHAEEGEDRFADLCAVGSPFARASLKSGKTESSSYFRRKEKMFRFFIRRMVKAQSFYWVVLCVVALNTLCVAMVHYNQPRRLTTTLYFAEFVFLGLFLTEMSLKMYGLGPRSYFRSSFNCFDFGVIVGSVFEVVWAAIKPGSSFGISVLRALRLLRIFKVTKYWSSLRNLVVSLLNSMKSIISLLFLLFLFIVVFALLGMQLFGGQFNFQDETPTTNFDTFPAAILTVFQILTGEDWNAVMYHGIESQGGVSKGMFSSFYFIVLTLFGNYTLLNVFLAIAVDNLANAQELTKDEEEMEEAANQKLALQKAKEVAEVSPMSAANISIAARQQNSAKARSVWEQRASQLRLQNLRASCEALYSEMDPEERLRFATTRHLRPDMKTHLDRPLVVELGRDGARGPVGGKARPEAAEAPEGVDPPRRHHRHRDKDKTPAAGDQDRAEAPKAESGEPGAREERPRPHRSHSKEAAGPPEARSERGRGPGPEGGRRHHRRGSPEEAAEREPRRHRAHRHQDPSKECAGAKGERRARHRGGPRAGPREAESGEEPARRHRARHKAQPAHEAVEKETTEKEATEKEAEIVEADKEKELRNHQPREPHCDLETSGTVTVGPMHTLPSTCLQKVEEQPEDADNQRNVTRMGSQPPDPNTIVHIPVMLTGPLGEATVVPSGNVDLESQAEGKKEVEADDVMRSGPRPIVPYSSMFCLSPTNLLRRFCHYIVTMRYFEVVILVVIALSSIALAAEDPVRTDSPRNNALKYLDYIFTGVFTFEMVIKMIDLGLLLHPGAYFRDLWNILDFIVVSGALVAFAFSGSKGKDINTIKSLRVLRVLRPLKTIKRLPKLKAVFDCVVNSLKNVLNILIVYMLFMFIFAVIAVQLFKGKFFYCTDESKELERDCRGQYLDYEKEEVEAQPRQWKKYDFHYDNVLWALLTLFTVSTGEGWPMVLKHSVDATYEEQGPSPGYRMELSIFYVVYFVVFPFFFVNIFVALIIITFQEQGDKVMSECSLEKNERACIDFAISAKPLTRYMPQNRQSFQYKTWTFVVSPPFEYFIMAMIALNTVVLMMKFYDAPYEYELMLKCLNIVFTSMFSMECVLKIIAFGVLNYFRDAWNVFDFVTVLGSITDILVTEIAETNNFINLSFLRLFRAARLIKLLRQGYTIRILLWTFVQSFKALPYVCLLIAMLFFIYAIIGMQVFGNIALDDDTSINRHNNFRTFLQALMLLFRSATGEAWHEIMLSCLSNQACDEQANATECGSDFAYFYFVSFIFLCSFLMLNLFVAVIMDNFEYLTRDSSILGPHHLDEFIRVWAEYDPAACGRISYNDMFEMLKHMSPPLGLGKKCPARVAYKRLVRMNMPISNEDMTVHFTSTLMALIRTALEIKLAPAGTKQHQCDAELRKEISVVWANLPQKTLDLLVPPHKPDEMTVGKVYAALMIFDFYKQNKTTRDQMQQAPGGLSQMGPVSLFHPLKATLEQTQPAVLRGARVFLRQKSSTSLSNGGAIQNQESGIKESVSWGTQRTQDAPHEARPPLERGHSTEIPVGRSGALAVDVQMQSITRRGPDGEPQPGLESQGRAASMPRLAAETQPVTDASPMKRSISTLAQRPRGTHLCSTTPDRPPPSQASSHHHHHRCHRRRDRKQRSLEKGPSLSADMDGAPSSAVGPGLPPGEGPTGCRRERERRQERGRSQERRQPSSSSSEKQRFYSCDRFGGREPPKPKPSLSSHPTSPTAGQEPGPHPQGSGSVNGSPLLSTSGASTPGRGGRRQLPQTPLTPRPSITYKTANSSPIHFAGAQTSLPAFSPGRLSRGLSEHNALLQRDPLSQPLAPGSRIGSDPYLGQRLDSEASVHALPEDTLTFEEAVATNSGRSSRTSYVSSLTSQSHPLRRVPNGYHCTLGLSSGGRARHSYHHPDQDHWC

Compound: CN1CC[C@]23c4c5ccc(O)c4O[C@H]2[C@@H](O)C=C[C@H]3[C@H]1C5 [morphine, reference compound]
- duration of significant effect on hot plate [1]: up to 5 hours

Compound: Phα1B (ACIPRGEICTDDCECCGCDNQCYCPPGSSLGIFKCSCAHANKYFCNRKKEKCKA)
- effect on capsaicin-induced increase of [Ca2+]i [2]: inhibition
- effect on acute, chronic and neurogenic pain [3]: blocks the acute, cronic and neurogenic pain
- ED50 for inhibiting the inflammatory phase of formalin test, comparison [4]: lower ED50 values
- antinociceptive effect on the inflammatory phase of formalin test [4]: potent and longer antinociceptive effect
- effect on stimulated release of glutamate [5]: blocks; also recorded: blocked the release of glutamate
- factor by which antinociceptive doses are lower than doses associated with side-effects (DT50) [6]: around 15 times
- effect on uptake of 45Ca2+ (calcium influx on depolarized terminal) [7]: blocks
- duration of antinociceptive effect in the heat pain model [1]: 24 h
- efficacy against pain induced on the hot plate test [1]: higher efficacy than conotoxins
- latency period on hot plate, time points with significant increase [1]: increasing significantly the latency period to 3, 4, 5, 6 and 24 hours
- IC50 for the antinociceptive effect [8]: 50.2 pmol
- antinociceptive effect (pain inhibition), in words [8]: reduces the pain in rats; also recorded: more effective to inhibit pain; also recorded: higher than that induced by morphine
- dose at which maximal inhibition was obtained [8]: 87.2 pmol
- duration of the antinociceptive effect [8]: up to 24 hours
- block of HVA calcium channel subtypes (L, N, P/Q and R) [9]: reversible block of all four HVA calcium channels subtypes
- selectivity among HVA Ca2+ channels [9]: most potent and effective on N-type; also recorded: measurable preference for N-type channels
- effect on electrical excitability of the neurons [10]: does not affect
- acute toxicity to the cells tested ([10]; central nervous system cells): not acutely toxic
- reversibility of N-type calcium channel inhibition [11]: reversibly inhibited
- IC50 ([11]; read-out: IC50 for inhibition of N-type calcium channels): 122 nM
- efficacy to inhibit capsaicin-induced release of glutamate [12]: higher efficacy
